This passage reports GI50 and TGI results from PubChem BioAssay (NCI).

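Values below derive from 48-hour exposures of cells grown in 96-well plates, with endpoints linearly interpolated between the two concentrations bracketing the appropriate inhibition level. GI50 = concentration required for 50% inhibition of growth. At the TGI there is no net growth.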

The first assay concerns ACHN renal. The assay can be described thus: NCI anticancer screen, dose series, 48 h.
With `COc1cc(N2C(=O)[C@H](O)C2c2ccc(SC)cc2)cc(OC)c1OC` (some centres undefined), the GI50 is less than 0.01 µM and the TGI was 60.5 µM.
In the same order, the values of `O=C1OCC2=C1C(c1ccc(Cl)c(Cl)c1)c1cc3c(cc1N2CCO)OCCO3` (centres undefined) are 0.334 µM and 44.9 µM.
On to `O=C1c2ccccc2-c2cc([N+](=O)[O-])c([N+](=O)[O-])cc21`, for which the TGI turned out to be 3.07 µM.
On to `CC(=O)OC12C=C(C)C(C(C)C1)C1C(=O)N(CCN3CCOCC3)C(=O)C12` (centres undefined), for which the GI50 was more than 100 µM and the TGI was more than 100 µM.
Regarding `CO/N=C(\COc1ccc2c(c1)[nH]c1ccccc12)c1ccc(F)cc1`, the GI50 was 35.7 µM and the TGI was more than 100 µM.
In the same order, the values of `CN(C)CCCn1c(=O)c2ccccc2c2ccccc21` are 4.84 µM and more than 100 µM.
As for `O=C1OC(=O)C(=C\c2ccc3c(c2)OCO3)/C1=C/c1ccc2c(c1)OCO2`, the TGI was more than 100 µM.
As for `COc1ccc(-c2[nH]c3ccccc3c2-c2ccc(OC)cc2)cc1`, the GI50 is 11.9 µM and the TGI came to 28.3 µM.
In the same order, the values of `O=C(/C=C\c1cccc([N+](=O)[O-])c1)/C=C/c1cccc([N+](=O)[O-])c1` are 4.47 µM and more than 100 µM.
`O=C1c2cccnc2C(=O)c2c1c(C(=O)NCCCN1CCCCC1)c1ccccn21`: the GI50 was 0.464 µM and the TGI worked out at 2.84 µM.
In turn, `COc1ccccc1-c1cc(=O)c2cc(C)cnc2[nH]1` registered a TGI of more than 100 µM.
As for `OCC1OC(n2cnc3c(N/N=C\c4ccccn4)ncnc32)C(O)C1O` (centres undefined), the GI50 is 0.2 µM and the TGI turned out to be 1.78 µM.
`COc1cc2c(cc1C1COc3cc4occc4cc3C1=O)OCO2` (centres undefined) gave a TGI of more than 100 µM.
For `O=C1/C(=C/c2ccccc2[N+](=O)[O-])Cc2ccccc21`, the GI50 is 1.87 µM and the TGI stood at 4.87 µM.

Another assay has as its system CAKI-1 renal. The assay can be described thus: NCI anticancer screen, dose series, 48 h.
In the case of `COc1cc(N2C(=O)[C@H](O)C2c2ccc(SC)cc2)cc(OC)c1OC` (some centres undefined), the GI50 was less than 0.01 µM and the TGI is more than 100 µM.
Consider `O=C1OCC2=C1C(c1ccc(Cl)c(Cl)c1)c1cc3c(cc1N2CCO)OCCO3` (centres undefined), for which the GI50 was 0.277 µM and the TGI is more than 35.5 µM.
For `O=C1c2ccccc2-c2cc([N+](=O)[O-])c([N+](=O)[O-])cc21`, the TGI is 6.17 µM.
On to `CC(=O)OC12C=C(C)C(C(C)C1)C1C(=O)N(CCN3CCOCC3)C(=O)C12` (centres undefined), for which the GI50 is more than 100 µM and the TGI is more than 100 µM.
Take `CO/N=C(\COc1ccc2c(c1)[nH]c1ccccc12)c1ccc(F)cc1`: the GI50 was more than 100 µM and the TGI is more than 100 µM.
For `CN(C)CCCn1c(=O)c2ccccc2c2ccccc21`, the GI50 is 6.23 µM and the TGI came to 34.9 µM.
The compound `O=C1OC(=O)C(=C\c2ccc3c(c2)OCO3)/C1=C/c1ccc2c(c1)OCO2` yielded a TGI of more than 100 µM.
For the compound `COc1ccc(-c2[nH]c3ccccc3c2-c2ccc(OC)cc2)cc1`, the GI50 was 3.67 µM and the TGI came out at 17.1 µM.
In the same order, the values of `O=C(/C=C\c1cccc([N+](=O)[O-])c1)/C=C/c1cccc([N+](=O)[O-])c1` are 4.4 µM and more than 100 µM.
With `COc1ccccc1-c1cc(=O)c2cc(C)cnc2[nH]1`, the TGI was more than 100 µM.
Take `OCC1OC(n2cnc3c(N/N=C\c4ccccn4)ncnc32)C(O)C1O` (centres undefined): the GI50 is 0.202 µM and the TGI came to 0.809 µM.
`COc1cc2c(cc1C1COc3cc4occc4cc3C1=O)OCO2` (centres undefined) displayed a TGI of more than 100 µM.
As for `O=C1/C(=C/c2ccccc2[N+](=O)[O-])Cc2ccccc21`, the GI50 was 3.13 µM and the TGI was more than 100 µM.

The test system of a further assay is DU-145 prostate. As to the kind of experiment: NCI anticancer screen, dose series, 48 h.
Take `COc1cc(N2C(=O)[C@H](O)C2c2ccc(SC)cc2)cc(OC)c1OC` (some centres undefined): the GI50 is 0.0238 µM and the TGI is more than 100 µM.
In the same order, the values of `O=C1OCC2=C1C(c1ccc(Cl)c(Cl)c1)c1cc3c(cc1N2CCO)OCCO3` (centres undefined) are 0.211 µM and 6.53 µM.
`O=C1c2ccccc2-c2cc([N+](=O)[O-])c([N+](=O)[O-])cc21` yielded a TGI of 3.28 µM.
Turning to `CC(=O)OC12C=C(C)C(C(C)C1)C1C(=O)N(CCN3CCOCC3)C(=O)C12` (centres undefined), the GI50 is more than 100 µM and the TGI was more than 100 µM.
For `CO/N=C(\COc1ccc2c(c1)[nH]c1ccccc12)c1ccc(F)cc1`, the GI50 is more than 100 µM and the TGI is more than 100 µM.
Consider `CN(C)CCCn1c(=O)c2ccccc2c2ccccc21`, for which the GI50 was 18.5 µM and the TGI is 52 µM.
In the case of `O=C1OC(=O)C(=C\c2ccc3c(c2)OCO3)/C1=C/c1ccc2c(c1)OCO2`, the TGI was more than 100 µM.
As for `COc1ccc(-c2[nH]c3ccccc3c2-c2ccc(OC)cc2)cc1`, the GI50 was 3.58 µM and the TGI was 11.4 µM.
In the same order, the values of `O=C(/C=C\c1cccc([N+](=O)[O-])c1)/C=C/c1cccc([N+](=O)[O-])c1` are 3.49 µM and 56 µM.
In the same order, the values of `O=C1c2cccnc2C(=O)c2c1c(C(=O)NCCCN1CCCCC1)c1ccccn21` are 1.2 µM and 2.61 µM.
With `COc1ccccc1-c1cc(=O)c2cc(C)cnc2[nH]1`, the TGI is more than 100 µM.
`OCC1OC(n2cnc3c(N/N=C\c4ccccn4)ncnc32)C(O)C1O` (centres undefined): the GI50 is 0.0389 µM and the TGI stood at 10.1 µM.
`COc1cc2c(cc1C1COc3cc4occc4cc3C1=O)OCO2` (centres undefined) gave a TGI of more than 100 µM.
`O=C1/C(=C/c2ccccc2[N+](=O)[O-])Cc2ccccc21`: the GI50 is 1.86 µM and the TGI came to 3.51 µM.

A further assay has as its system HOP-92 NSCLC. The assay can be described thus: NCI anticancer screen, dose series, 48 h.
`COc1cc(N2C(=O)[C@H](O)C2c2ccc(SC)cc2)cc(OC)c1OC` (some centres undefined): the GI50 was 71.4 µM and the TGI is more than 100 µM.
In the same order, the values of `O=C1OCC2=C1C(c1ccc(Cl)c(Cl)c1)c1cc3c(cc1N2CCO)OCCO3` (centres undefined) are 0.236 µM and 8.2 µM.
For `O=C1c2ccccc2-c2cc([N+](=O)[O-])c([N+](=O)[O-])cc21`, the TGI is 3.2 µM.
Turning to `CC(=O)OC12C=C(C)C(C(C)C1)C1C(=O)N(CCN3CCOCC3)C(=O)C12` (centres undefined), the GI50 was more than 100 µM and the TGI was more than 100 µM.
As for `CO/N=C(\COc1ccc2c(c1)[nH]c1ccccc12)c1ccc(F)cc1`, the GI50 is 13.7 µM and the TGI is 55.2 µM.
In the same order, the values of `CN(C)CCCn1c(=O)c2ccccc2c2ccccc21` are 17.9 µM and 67.2 µM.
`O=C1OC(=O)C(=C\c2ccc3c(c2)OCO3)/C1=C/c1ccc2c(c1)OCO2` showed a TGI of more than 100 µM.
On to `COc1ccc(-c2[nH]c3ccccc3c2-c2ccc(OC)cc2)cc1`, for which the GI50 was 2.24 µM and the TGI stood at 9.4 µM.
In the same order, the values of `O=C(/C=C\c1cccc([N+](=O)[O-])c1)/C=C/c1cccc([N+](=O)[O-])c1` are 9.92 µM and 43.9 µM.
In the same order, the values of `O=C1c2cccnc2C(=O)c2c1c(C(=O)NCCCN1CCCCC1)c1ccccn21` are 2.33 µM and 4.9 µM.
`COc1ccccc1-c1cc(=O)c2cc(C)cnc2[nH]1` had a TGI of more than 100 µM.
Same read-out and setting: as for `COc1cc2c(cc1C1COc3cc4occc4cc3C1=O)OCO2` (centres undefined), the figure is more than 100 µM.
For the compound `O=C1/C(=C/c2ccccc2[N+](=O)[O-])Cc2ccccc21`, the GI50 was 1.22 µM and the TGI was 3.36 µM.

The subject of the next assay is K-562 leukemia. As to the kind of experiment: NCI anticancer screen, dose series, 48 h.
On to `COc1cc(N2C(=O)[C@H](O)C2c2ccc(SC)cc2)cc(OC)c1OC` (some centres undefined), for which the GI50 is less than 0.01 µM and the TGI was more than 100 µM.
In the same order, the values of `O=C1OCC2=C1C(c1ccc(Cl)c(Cl)c1)c1cc3c(cc1N2CCO)OCCO3` (centres undefined) are 0.211 µM and more than 22.6 µM.
For `O=C1c2ccccc2-c2cc([N+](=O)[O-])c([N+](=O)[O-])cc21`, the TGI worked out at 8.04 µM.
Consider `CC(=O)OC12C=C(C)C(C(C)C1)C1C(=O)N(CCN3CCOCC3)C(=O)C12` (centres undefined), for which the GI50 is more than 100 µM and the TGI was more than 100 µM.
In the case of `CN(C)CCCn1c(=O)c2ccccc2c2ccccc21`, the GI50 was 21.8 µM and the TGI was more than 100 µM.
For `O=C1OC(=O)C(=C\c2ccc3c(c2)OCO3)/C1=C/c1ccc2c(c1)OCO2`, the TGI was more than 100 µM.
Turning to `COc1ccc(-c2[nH]c3ccccc3c2-c2ccc(OC)cc2)cc1`, the GI50 was 2.89 µM and the TGI was 10.4 µM.
In the same order, the values of `O=C1c2cccnc2C(=O)c2c1c(C(=O)NCCCN1CCCCC1)c1ccccn21` are 1.22 µM and more than 100 µM.
Compound `COc1ccccc1-c1cc(=O)c2cc(C)cnc2[nH]1` registered a TGI of 61.3 µM.
With `OCC1OC(n2cnc3c(N/N=C\c4ccccn4)ncnc32)C(O)C1O` (centres undefined), the GI50 was 0.368 µM and the TGI is more than 100 µM.
